Earlier results in article PMC7904743, “WIDOCK: a reactive docking protocol for virtual screening of covalent inhibitors” (Journal of Computer-Aided Molecular Design, 2021).
Like-named read-outs stand apart in the source and are kept apart here.

Assays:
OTUB2 = conditions: experimental actives if % labeling higher than 50%, cited from earlier work
NUDT7 = conditions: protein labeling at 200 μM; experimental actives if % labeling higher than 50%; cited from earlier work
[1] = thiol reactivity, cited from earlier work
[2] = natural log of average rate constant k
[3] = natural logarithm of average rate constant
[4] = natural log of average kinetic rate constant
[5] = natural log of average rate constant

| Structure (SMILES) | OTUB2 % labeling (OTUB2) [%] | NUDT7 % labeling (NUDT7) [%] | ln(avg k) [1, 2] | ln(avg k) [1, 3] | OTUB2 % labeling (OTUB2; OTUB2 protein labeling) [%] | ln(avg k) [1, 4] | ln(avg k) [1, 5] |
| --- | --- | --- | --- | --- | --- | --- | --- |
| COc1ccccc1NC(=O)CCl [PCM-0102236, COc1ccccc1NC(=O)CCl] | 28 | 0 | -16.359 | -16.359 | – | – | – |
| Cc1nnc(NC(=O)CCl)s1 [PCM-0102211, Cc1nnc(NC(=O)CCl)s1] | 0 | 0 | -15.999 | -15.999 | – | – | – |
| CCOC(=O)C1CCN(C(=O)CCl)CC1 [PCM-0102656, CCOC(=O)C1CCN(C(=O)CCl)CC1] | 0 | 0 | -15.523 | -15.523 | – | – | – |
| N#Cc1cccc(CNC(=O)CCl)c1 [PCM-0102936, N#Cc1cccc(CNC(=O)CCl)c1] | – | 0 | – | – | 32 | -16.667 | -16.667 |
| CC(C)NC(=O)NC(=O)CCl [PCM-0102504, CC(C)NC(=O)NC(=O)CCl] | 0 | 0 | -16.238 | -16.238 | – | – | – |
| O=C(CCl)N1CCN(c2cnccn2)CC1 [PCM-0102889, O=C(CCl)N1CCN(c2cnccn2)CC1] | – | 0 | – | – | 0 | -15.833 | -15.833 |
| O=C(CCl)NCC1CCS(=O)(=O)C1 (centres unmarked) [PCM-0102896, O=C(CCl)NCC1CCS(=O)(=O)C1] | – | 0 | – | – | 23 | -16.032 | -16.032 |
| O=C(CCl)Nc1cc2ccccc2cc1C(=O)O [PCM-0102311, O=C(CCl)Nc1cc2ccccc2cc1C(=O)O] | 10 | 17 | -15.248 | -15.248 | – | – | – |
| Cc1csc(CC(=O)NNC(=O)CCl)n1 [PCM-0102095, Cc1csc(CC(=O)NNC(=O)CCl)n1] | 51 | 0 | -16.857 | -16.857 | – | – | – |
| O=C(CCl)N(c1ccc(F)cc1)C1C=CS(=O)(=O)C1 (centres unmarked) [PCM-0102868, O=C(CCl)N(c1ccc(F)cc1)C1C=CS(=O)(=O)C1] | – | 34 | – | – | 0 | -15.576 | -15.576 |
| O=C(CCl)N1CCSC1c1ccccc1F (centres unmarked) [PCM-0102293, O=C(CCl)N1CCSC1c1ccccc1F] | 12 | 83 | -15.618 | -15.618 | – | – | – |
| Cc1cccc(CN2CCN(C(=O)CCl)CC2)c1 [PCM-0102340, Cc1cccc(CN2CCN(C(=O)CCl)CC2)c1] | 17 | 0 | -15.593 | -15.593 | – | – | – |
| Cc1ccc(S(=O)(=O)N2CCN(C(=O)CCl)CC2)cc1 [PCM-0102759, Cc1ccc(S(=O)(=O)N2CCN(C(=O)CCl)CC2)cc1] | – | 12 | – | – | 0 | -15.424 | -15.424 |
| CCc1nc(NC(=O)CCl)sc1C [PCM-0102231, CCc1nc(NC(=O)CCl)sc1C] | 0 | 33 | -15.238 | -15.238 | – | – | – |
| O=C(CCl)N1CCN(c2ccccn2)CC1 [PCM-0102213, O=C(CCl)N1CCN(c2ccccn2)CC1] | 0 | 0 | -15.928 | -15.928 | – | – | – |
| CCOC(=O)N1CCC(NC(=O)CCl)CC1 [PCM-0102255, CCOC(=O)N1CCC(NC(=O)CCl)CC1] | 24 | 0 | -15.985 | -15.985 | – | – | – |
| O=C(CCl)Nc1cc(Cl)ccc1-n1cncn1 [PCM-0102258, O=C(CCl)Nc1cc(Cl)ccc1-n1cncn1] | 0 | 21 | -15.839 | -15.839 | – | – | – |
| O=C(CCl)Nc1nc2ccccc2s1 [PCM-0102698, O=C(CCl)Nc1nc2ccccc2s1] | 7 | 83 | -15.845 | -15.845 | – | – | – |

| Structure (SMILES) | OTUB2 % labeling (OTUB2) [%] | NUDT7 % labeling (NUDT7) [%] | ln(avg k) [1, 2] | ln(avg k) [1, 3] | OTUB2 % labeling (OTUB2; OTUB2 protein labeling) [%] | ln(avg k) [1, 4] | ln(avg k) [1, 5] |
| --- | --- | --- | --- | --- | --- | --- | --- |
| O=C(CCl)N1CCN(c2ncccn2)CC1 [PCM-0102093, O=C(CCl)N1CCN(c2ncccn2)CC1] | 0 | 0 | -15.547 | -15.547 | – | – | – |
| O=C(CCl)NCc1cccc(F)c1 [PCM-0103047, O=C(CCl)NCc1cccc(F)c1] | – | 0 | – | – | 43 | -16.636 | -16.636 |
| O=C(CCl)N1CCN(Cc2ccco2)CC1 [PCM-0103006, O=C(CCl)N1CCN(Cc2ccco2)CC1] | – | 0 | – | – | 0 | -15.615 | -15.615 |
| O=C(CCl)NCc1cccnc1 [PCM-0102497, O=C(CCl)NCc1cccnc1] | 5 | 0 | -17.127 | -17.127 | – | – | – |
| Cc1ccccc1C(C)NC(=O)CCl (centres unmarked) [PCM-0102390, Cc1ccccc1C(C)NC(=O)CCl] | 26 | 10 | -16.582 | -16.582 | – | – | – |
| O=C(CCl)N1CCN(S(=O)(=O)c2ccc3c(c2)CCC3)CC1 [PCM-0102193, O=C(CCl)N1CCN(S(=O)(=O)c2ccc3c(c2)CCC3)CC1] | 0 | 0 | -15.169 | -15.169 | – | – | – |
| O=C(CCl)Nc1ccc(Br)cc1 [PCM-0102992, O=C(CCl)Nc1ccc(Br)cc1] | – | 11 | – | – | 8 | -15.800 | -15.800 |
| O=C(CCl)NCC1Cc2ccccc2O1 (centres unmarked) [PCM-0103020, O=C(CCl)NCC1Cc2ccccc2O1] | – | 0 | – | – | 0 | -17.072 | -17.072 |
| O=C(CCl)NCC1COc2ccccc2O1 (centres unmarked) [PCM-0102881, O=C(CCl)NCC1COc2ccccc2O1] | – | 0 | – | – | 39 | -16.328 | -16.328 |
| O=C(CCl)N(C1CCCC1)C1CC1 [PCM-0103064, O=C(CCl)N(C1CCCC1)C1CC1] | – | 0 | – | – | 0 | -16.942 | -16.942 |
| CN(Cc1nc2ccccc2s1)C(=O)CCl [PCM-0102988, CN(Cc1nc2ccccc2s1)C(=O)CCl] | – | 30 | – | – | 0 | -15.687 | -15.687 |
| Cc1cc(Br)ccc1NC(=O)CCl [PCM-0102799, Cc1cc(Br)ccc1NC(=O)CCl] | – | 24 | – | – | 61 | -16.305 | -16.305 |
| O=C1CC(C(F)(F)F)N(C(=O)CCl)c2ccccc2N1 (centres unmarked) [PCM-0102363, O=C1CC(C(F)(F)F)N(C(=O)CCl)c2ccccc2N1] | 0 | 28 | -15.654 | -15.654 | – | – | – |
| COc1cccc(C2CCCN2C(=O)CCl)c1 (centres unmarked) [PCM-0102716, COc1cccc(C2CCCN2C(=O)CCl)c1] | 9 | 68 | – | -15.631 | – | – | -15.631 |
| O=C(CCl)N1CCCC2CCCCC21 (centres unmarked) [PCM-0102826, O=C(CCl)N1CCCC2CCCCC21] | – | 7 | – | – | 0 | -16.060 | -16.060 |
| O=C(CCl)N(C1CCCC1)C1CCS(=O)(=O)C1 (centres unmarked) [PCM-0102313, O=C(CCl)N(C1CCCC1)C1CCS(=O)(=O)C1] | 0 | 11 | -15.397 | -15.397 | – | – | – |
| COC(=O)c1ccc(Cl)c(NC(=O)CCl)c1 [PCM-0102764, COC(=O)c1ccc(Cl)c(NC(=O)CCl)c1] | – | 7 | – | – | 29 | -16.022 | -16.022 |
